Consider 9 compounds from US10799494B2, “Combination of respiratory electron transport chain inhibitors with a cytochrome bd inhibitor” (priority 2015, dated 2020).

“And” between values parts separate entries of the source, which are not always exact repeats. Identical values can stand only once.

For one data set, the system named is HepG2 cell line. The data set is described as follows: Human cell counter screen (HepG2) cellular toxicity. A general note: The purpose of a counterscreen is to sort out artefacts and off-target activity.
Another data set addresses bovine cytochrome bc1 (Bos taurus (Bovine), UniProt P00157). In words: Bovine cytochrome bc1 inhibition (cytochrome c reduction, Keilin-Hartree particles). It counts as biochemical.
In another data set the test system is M. tuberculosis H37Rv. In words: M. tuberculosis H37Rv growth inhibition screen at fixed 5 μM. It counts as cell-based, Mycobacterium tuberculosis. Conditions: Mycobacterium tuberculosis, H37RV; aerobic; 5 μM compound; read-out: Growth of M. tuberculosis H37Rv (aerobic) at 5 μM of [compounds].
For data set [1], the target named is M. tuberculosis cytochrome bd-I (Mycobacterium tuberculosis, UniProt L7N662). The data set is classed as biochemical.
Data set [2] addresses recombinant M. tuberculosis bd-I (Mycobacterium tuberculosis, UniProt L7N662). In words: Steady-state kinetics of quinol:Mtb bd-I activity with artificial quinol substrates. Conditions: for specific catalytic activity: FIG. 1, measured at 283 nm.
The subject of data set [3] is Mycobacterium tuberculosis (Mtb) H37Rv. In words: MGIT growth inhibition assay, time to positivity. It counts as cell-based.
In another data set the test system is Mtb H37Rv. In words: In vitro (replicating) Mtb growth inhibition, microplate Alamar blue assay. It counts as cell-based, Mycobacterium tuberculosis. In general terms: Resazurin is reduced to fluorescent resorufin, in cell work by metabolically active cells.
The conditions of data set [4]: 9/79 vs placebo 2/81, […]; cited from earlier work.
Data set [5] deals with COc1c(O)c(C)c(C/C=C(\C)CCC=C(C)C)c(O)c1OC. The data set is described as follows: cells, lysate or membranes named. Conditions: pH 7.5.
Data set [6] deals with COc1c(O)c(C)c(CC=C(C)C)c(O)c1OC. In words: cells, lysate or membranes named. Conditions: pH 7.5.
The mark [7] stands for this setting: Table 8, WDH-2G-6 3 μM, MTC420 5.5 μM, lansoprazole sulphide 26.5 μM, TMC207 250 nM, media control 10.

Chain of bovine cytochrome bc1 (P00157 whole entry, looked up): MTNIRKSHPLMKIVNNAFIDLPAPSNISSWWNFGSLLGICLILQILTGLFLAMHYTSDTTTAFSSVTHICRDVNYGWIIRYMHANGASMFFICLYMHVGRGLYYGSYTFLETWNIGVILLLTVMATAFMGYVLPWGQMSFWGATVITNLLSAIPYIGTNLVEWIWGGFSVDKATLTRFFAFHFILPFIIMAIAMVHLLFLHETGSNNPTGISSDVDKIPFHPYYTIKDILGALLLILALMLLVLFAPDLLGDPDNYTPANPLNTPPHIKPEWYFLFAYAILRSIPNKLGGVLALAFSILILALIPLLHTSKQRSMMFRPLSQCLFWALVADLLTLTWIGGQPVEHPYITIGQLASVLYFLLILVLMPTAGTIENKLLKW
Chain of recombinant M. tuberculosis bd-I (L7N662 1-485): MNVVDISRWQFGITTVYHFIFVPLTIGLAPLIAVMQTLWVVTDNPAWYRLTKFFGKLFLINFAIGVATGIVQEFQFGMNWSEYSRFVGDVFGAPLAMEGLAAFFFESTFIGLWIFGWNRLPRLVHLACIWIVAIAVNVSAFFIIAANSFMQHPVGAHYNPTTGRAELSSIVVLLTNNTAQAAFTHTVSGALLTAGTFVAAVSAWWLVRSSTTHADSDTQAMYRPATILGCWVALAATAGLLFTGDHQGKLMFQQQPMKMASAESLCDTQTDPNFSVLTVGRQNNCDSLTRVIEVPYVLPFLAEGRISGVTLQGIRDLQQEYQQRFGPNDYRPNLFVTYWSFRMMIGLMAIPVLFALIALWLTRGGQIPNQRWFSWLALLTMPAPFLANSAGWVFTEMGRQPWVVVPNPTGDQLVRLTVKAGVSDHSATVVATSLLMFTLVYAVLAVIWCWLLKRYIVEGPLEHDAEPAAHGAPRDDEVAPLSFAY
Chain of M. tuberculosis cytochrome bd-I (L7N662 1-485): as above

As usually defined, the IC50 is the concentration needed to halve the response being measured. The low end stands for greater potency in that assay, the high end for weaker potency in that assay. Turning to `Cc1c(-c2ccc(Cc3ccccc3)cc2)[nH]c2ccccc2c1=O` [CK-2-88, 2-(4-Benzylphenyl)-3-methylquinolin-4(1H)-one], in the data set on HepG2 cell line, the HepG2 was >100 µM. For the same compound, the IC50 at bovine cytochrome bc1 is 340 nM. Also, the activity at 5 µM in the data set with M. tuberculosis H37Rv amounted to 90.5%. In data set [1], the “inhibition @ 1 uM (% of cntls)” value is 87.5 % of cntls.

In the case of `COc1c(O)c(C)c(C/C=C(\C)CCC=C(C)C)c(O)c1OC` [Compound Q2H2, ubiquinol-2], in data set [2], the “specific catalytic activity ± SEM” value was found to be 8.7 ± 2.5 µmol/min/mg and the specific catalytic activity was 8.65 ± 2.5 µmol/min/mg.

As for `Cc1c(-c2ccc(Cc3ccc(F)cc3)cc2)[nH]c2ccccc2c1=O` [LT-9, 2-(4-(4-Fluorobenzyl)phenyl)-3-methylquinolin-4(1H)-one], the HepG2 in the data set with HepG2 cell line is >50 µM. In addition, the activity at 5 µM with M. tuberculosis H37Rv was found to be 34.7%.

As to `Cc1c(-c2ccc(N3CCC(F)(F)C3)cc2)[nH]c2cc(F)cc(F)c2c1=O` [MTC420], the “Time to positivity / outgrowth of Mtb in MGITs” value in data set [3] (FIG. 3, repeated 3 times) is 11 to 13 days. Besides, the “Time to Positivity” value in data set [3] (Table 6, compounds at 5x IC90, drug free control 11, followed to 74 days) turned out to be 18 days; in [3] (setting [7]) it was 13 days. In the data set on Mtb H37Rv, this compound came in with an IC50 of 520 nM.

`O=c1cc(-c2ccc(Cc3ccc(OC(F)(F)F)cc3)cc2)[nH]c2ccccc12` [RKA-70, 2-(4-(4-(Trifluoromethoxy)benzyl)phenyl)quinolin-4(1H)-one]: in the data set on HepG2 cell line, the HepG2 was >50 µM. The compound also came in with an IC50 on bovine cytochrome bc1 of 310 nM. The activity at 5 µM in the data set with M. tuberculosis H37Rv was found to be 100%.

`Cc1c(-c2ccc(-c3ccc(OC(F)(F)F)cc3)nc2)[nH]c2ccccc2c1=O` [SL-2-25, 3-Methyl-2-(6-(4-(trifluoromethoxy)phenyl)pyridin-3-yl)quinolin-4(1H)-one]: in the data set on HepG2 cell line, the HepG2 was >50 µM. The compound further gave an IC50 on bovine cytochrome bc1 of 890 nM. Moreover, the activity at 5 µM in the data set with M. tuberculosis H37Rv came to 88.9%.

Regarding `COc1nc2ccc(Br)cc2cc1[C@@H](c1ccccc1)[C@@](O)(CCN(C)C)c1cccc2ccccc12` [TMC 207, bedaquiline], the “Time to Positivity” value in data set [3] (Table 7 / FIG. 9, compounds at 5x IC90, 7.5×10^5 Mtb cells per tube, drug free control 8, followed to 80 days) stood at 12 days; in data set [3] (setting [7]), 13 days. Moreover, the “death in treatment group” value in data set [4] is reported as 11.4%.

`CCCCCCCCCCc1c(C)c(O)c(OC)c(OC)c1O` [dQH2, decylubiquinol]: in data set [2], the “specific catalytic activity ± SEM” value was 9.0 ± 0.2 µmol/min/mg and 5.1 ± 0.3 µmol/min/mg and 6.2 ± 0.5 µmol/min/mg; the specific catalytic activity turned out to be 5.1 ± 0.29 µmol/min/mg.

Usually Km stands for the substrate concentration at which the rate is half of its maximum. As for “recombinant M. tuberculosis bd-I (Mycobacterium tuberculosis H37Rv)”, the Km in data set [5] is 65.21 ± 15.31 µM and 65.2 ± 15.3 µM; in data set [6], 51.55 ± 8.9 µM and 51.6 ± 8.9 µM and 51.8 ± 6.1 µM.
